The nature of data set [1]: Urine glucose assay in normal rats. To be noted: normal male SD rats, 10 mg/Kg oral, glucose 5 g/kg, 24 h urine; for Urine glucose mass: standardized to 200 g body weight. It counts as in vivo, Sprague-Dawley rats. The procedure:
SPF-grade male Sprague-Dawley rats, 6-weeks aged, were used in this urine glucose assay. After the rats were fasted for 15 h, the rats were divided randomly into a blank control group, a model group, a positive drug group and a test drug group according to their body weights. The rats were put into metabolic cages where water was available but food was unavailable. The urines in this 24 hours were collected. Then, the drugs were orally administered (10 mg/Kg) and then the glucose was fed (5 g/kg) to the animals. Then the animals were put into metabolic cages. The rats were supplemented with food one hour after the drug administration and the glucose feeding, and then could freely contact the diets. The urines in this 24 hours were collected and recorded. The collected urines were centrifuged at 3000 rpm for 15 mins. The residues were removed. The supernatants were taken and the urine glucose contents therein were measured.
The urine glucose contents were standardized based on the body weight of 200 g. The data were expressed in average±standard deviation. The resulting values were analyzed with one-way ANOVA, and the comparisons between groups were conducted with one-way ANOVA and Dunnett test, where p<0.05 was considered to have a statistical significance.

In the next data set the target is T1, human SGLT2 (Homo sapiens, UniProt P31639).
T1 sequence (P31639 1-672): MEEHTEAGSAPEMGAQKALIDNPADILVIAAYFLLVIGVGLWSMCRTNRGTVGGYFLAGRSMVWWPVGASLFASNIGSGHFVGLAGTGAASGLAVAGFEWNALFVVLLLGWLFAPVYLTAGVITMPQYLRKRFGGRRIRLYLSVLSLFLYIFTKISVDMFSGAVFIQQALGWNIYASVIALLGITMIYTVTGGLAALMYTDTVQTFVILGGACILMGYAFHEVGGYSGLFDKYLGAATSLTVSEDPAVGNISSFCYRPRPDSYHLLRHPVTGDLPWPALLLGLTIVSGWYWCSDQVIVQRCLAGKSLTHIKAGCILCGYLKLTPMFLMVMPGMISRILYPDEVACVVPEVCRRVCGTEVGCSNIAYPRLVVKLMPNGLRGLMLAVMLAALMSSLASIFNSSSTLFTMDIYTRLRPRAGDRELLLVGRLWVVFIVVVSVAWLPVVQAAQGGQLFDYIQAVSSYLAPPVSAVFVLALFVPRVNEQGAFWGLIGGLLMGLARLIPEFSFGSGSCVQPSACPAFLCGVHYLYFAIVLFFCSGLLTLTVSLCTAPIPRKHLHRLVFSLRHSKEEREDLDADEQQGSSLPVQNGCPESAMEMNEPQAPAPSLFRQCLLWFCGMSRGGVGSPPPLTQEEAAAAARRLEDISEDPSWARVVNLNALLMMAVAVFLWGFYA
Nature of the data set: Inhibition of sodium dependent [14C]-AMG uptake in CHO cells stably expressing human SGLT2. It is filed as cell-based. To be noted: for IC50: CHO cells expressing human SGLT2, [14C]-AMG uptake; for Selectivity: SGLT1 IC50 versus SGLT2 IC50. As for the experimental part: (§1) In the in vitro evaluation method according to the present invention, the human SGLT2 and SGLT1 sequences were transfected to Chinese hamster ovary cells to express stably. By measuring inhibition of the sodium dependent adsorption of [^14C]-labeled […]-D-glucopyranoside (AMG) into the cells, the half-inhibition concentration IC50 was determined.
(§2) Buffer A (KRH-Na+): 120 mM NaCl, 4.7 mM KCl, 1.2 mM MgCl2, 2.2 mM CaCl2, 10 mM HEPES (PH 7.4 with 1 mM Tris).
(§3) Buffer A− (KRH-NMG): 120 mM NMG, 4.7 mM KCl, 1.2 mM MgCl2, 2.2 mM CaCl2, 10 mM HEPES (PH 7.4 with 1 mM Tris).
(§4) Buffer D: 120 mM NaCl, 4.7 mM KCl, 1.2 mM MgCl2, 2.2 mM CaCl2, 10 mM HEPES, 0.5 mM phlorizin (PH 7.4 with 1 mM Tris).
(§5) Assay method: Human SGLT2 and SGLT1 sequences were stably expressed in the CHO cells. The cell culture was conducted in a 96-well plate for 12 hr. The plate was washed with KRH-Na+ (Buffer A) or KRH-NMG (Buffer A−) buffering solution for three times, 200 μL/well. Then the plate was washed with a buffering solution containing Buffer A or Buffer A− plus [^14C]-AMG (10 μCi/mL), 100 μL/well. The cell culture was conducted at 37° C. for 1 h. Then, 100 μL of ice pre-cooled buffering solution (Buffer D) was added to terminate the assay. The plate was washed for 5 times. Then 100 mM NaOH solution was added, 20 μL/well, and the centrifugation at 600 rpm was conducted for 5 mins. Then Microscint 40 solution was added, 80 μl/well, and the centrifugation at 600 rpm was conducted for 5 mins. Finally, the radioactivity of [^14C]-AMG was detected with MicroBeta Trilux (purchased from PerkinElmer Co. Ltd.) according to the scintillation counting method, and the half-inhibition concentration IC50 was calculated.
(§6) The above assays were entrusted to Shanghai ChemPartner Co. Ltd.

The target in the next data set is T2, human SGLT1 (Homo sapiens, UniProt P13866).
T2 sequence (P13866 1-664): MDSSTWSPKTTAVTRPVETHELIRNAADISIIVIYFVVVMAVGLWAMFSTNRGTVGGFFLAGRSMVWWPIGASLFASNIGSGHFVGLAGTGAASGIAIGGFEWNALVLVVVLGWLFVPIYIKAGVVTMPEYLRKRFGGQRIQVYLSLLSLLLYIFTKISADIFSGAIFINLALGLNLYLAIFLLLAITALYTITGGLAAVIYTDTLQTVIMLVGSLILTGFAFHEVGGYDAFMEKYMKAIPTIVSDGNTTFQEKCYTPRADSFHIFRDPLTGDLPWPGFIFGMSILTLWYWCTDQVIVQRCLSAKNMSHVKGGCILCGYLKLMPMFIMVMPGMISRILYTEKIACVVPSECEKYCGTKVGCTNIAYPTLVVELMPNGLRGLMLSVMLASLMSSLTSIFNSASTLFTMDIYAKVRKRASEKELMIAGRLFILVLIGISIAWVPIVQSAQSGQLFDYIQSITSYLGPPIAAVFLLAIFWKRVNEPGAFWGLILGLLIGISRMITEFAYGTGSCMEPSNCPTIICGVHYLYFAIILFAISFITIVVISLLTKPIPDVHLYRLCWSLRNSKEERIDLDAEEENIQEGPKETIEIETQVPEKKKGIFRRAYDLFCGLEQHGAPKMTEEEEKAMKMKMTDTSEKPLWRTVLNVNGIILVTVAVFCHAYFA
Briefly: Inhibition of sodium dependent [14C]-AMG uptake in CHO cells stably expressing human SGLT1. It counts as cell-based. To be noted: CHO cells expressing human SGLT1, [14C]-AMG uptake. The procedure:
as §1, §2, §3, §4, §5, §6

Data set [2] can be described thus: Rat in vivo pharmacokinetic assay (IV and PO). More on the design: species or system SD rats. The note with it: plasma, male SD rat; for half-life: read-out: T1/2 (half-life) (converted); for bioavailability: PO 5 mg/kg versus IV 2 mg/kg, read-out: F % (absolute bioavailability). The procedure: Rat In Vivo Pharmacokinetic Assay for the Present Compounds
Assay animals: 6-8 weeks aged male SD rats (purchased from Vital River Laboratories), 6 rats per compound, weighing 220-250 g.
Dissolved in an appropriate solvent (5% DMSO+95% (6% HP-β-CD solution)).
Administration: See Table 2
Blood collection: each of about 100 μL whole blood were collected at 0 h, 0.083 h, 0.25 h, 0.5 h, 1 h, 2 h, 4 h, 6 h, 8 h and 24 h. The collected blood samples were centrifuged at 4° C. at 8000 rpm in a low temperature high-speed centrifuge (5415R, Eppendorf) for 6 mins to separate the blood plasm. The separated plasm was preserved at −80° C. in a refrigerator.
20 μL of the plasm was carefully taken out, to which was added 200 μL acetonitrile solution (containing internal standard KBP-1204 50 ng/ml). The plasm was subjected to a vortex at 1500 rpm for 3 mins, and then centrifuged at 12000 rpm for 5 mins. The supernatant was taken and was analyzed with LC-MS/MS (API4000, Applied Biosystems). Equation Absolute bioavailability F %=[AUC]INF(PO)*Dose(IV)/[AUC]INF(IV)*Dose(PO)

Like-named read-outs stand apart in the source and are kept apart here.

A word on the IC50: it is the concentration that gives 50% inhibition. Low readings indicate greater potency, high ones weaker potency. In general, AUC(0-t) refers to the area under the concentration-time curve up to a stated or last time point. A low value points to low exposure. By AUC(0-inf) is commonly meant total exposure, with the tail of the curve extrapolated. Read a high AUC(0-inf) as more exposure. For orientation: bioavailability means the share of a dose that reaches the circulation, judged against a reference dose that is usually intravenous.

As to `OC[C@H]1OC(c2ccc(Cl)c(Cc3ccc(OC4C5COCC54)cc3)c2)[C@H](O)[C@@H](O)[C@@H]1O` (some centres unmarked) [Compound 10], in data set [1], the Urine volume is 16.25 mL and the Urine glucose mass amounted to 972.99 mg/200 g. At human SGLT2, this molecule registered an IC50 of 0.00316 µM and a Selectivity of 596. For the same molecule, at human SGLT1, the IC50 was found to be 1.89 µM. In data set [2] (IV, 2 mg/kg), the AUC(0-t) was 972 ± 164 ng·h/mL, the total exposure AUC(0-inf) amounted to 984 ± 167 ng·h/mL and the half-life was 0.88 ± 0.21 h. Further, in data set [2], the bioavailability stood at 18.9 ± 6.52%. In data set [2] (PO, 5 mg/kg), the AUC(0-t) worked out at 430 ± 166 ng·h/mL, the AUC(0-inf) was determined as 464 ± 160 ng·h/mL and the half-life is 1.77 ± 0.47 h.

Regarding `OC[C@H]1O[C@@H](c2ccc(Cl)c(Cc3ccc(O[C@H]4CCOC4)cc3)c2)[C@H](O)[C@@H](O)[C@@H]1O` [BI-10773, reference compound], in data set [1], the Urine volume is 16.63 mL and the Urine glucose mass amounted to 866.67 mg/200 g. In data set [2] (IV, 2 mg/kg), the AUC(0-t) stood at 1090 ± 138 ng·h/mL, the AUC(0-inf) worked out at 1100 ± 142 ng·h/mL and the half-life is 0.7 ± 0.07 h. The bioavailability in data set [2] turned out to be 16.5%. Besides, in data set [2] (PO, 5 mg/kg), the area under the curve AUC(0-t) is 426 ± 116 ng·h/mL, the AUC(0-inf) worked out at 457 ± 114 ng·h/mL and the half-life is 1.33 ± 0.33 h.

For `OC[C@H]1OC(c2ccc(Cl)c(Cc3ccc(C4CCC5(CCC5)CC4)cc3)c2)[C@H](O)[C@@H](O)[C@@H]1O` (some centres unmarked) [Compound 13], at human SGLT2, the concentration for half-maximal inhibition (IC50) was determined as 0.00399 µM and the Selectivity came to 73. Further, the IC50 against human SGLT1 turned out to be 29.1 µM. Besides, in data set [2] (IV, 2 mg/kg), the area under the curve AUC(0-t) stood at 6950 ± 100 ng·h/mL, the AUC(0-inf) turned out to be 7010 ± 148 ng·h/mL and the half-life is 3.75 ± 0.6 h. In addition, in data set [2], the bioavailability came out at 35.9 ± 7.78%. Besides, in data set [2] (PO, 5 mg/kg), the AUC(0-t) was 6220 ± 1350 ng·h/mL, the area under the curve AUC(0-inf) is 6290 ± 1360 ng·h/mL and the half-life is 3.36 ± 0.46 h.

In data set [1], `OC[C@H]1OC(c2ccc(Cl)c(Cc3ccc(OC4CC5CC5C4)cc3)c2)[C@H](O)[C@@H](O)[C@@H]1O` (some centres unmarked) [Compound 4] had a Urine volume of 18.50 mL and a Urine glucose mass of 1197.79 mg/200 g. The IC50 at human SGLT1 turned out to be 2.4 µM. Besides, in data set [2] (IV, 2 mg/kg), the AUC(0-t) was 12400 ± 732 ng·h/mL, the AUC(0-inf) was 13500 ± 451 ng·h/mL and the half-life was 6.81 ± 0.74 h. For the same molecule, the bioavailability in data set [2] turned out to be 87.2%. In data set [2] (PO, 5 mg/kg), the AUC(0-t) was determined as 26300 ± 1790 ng·h/mL, the AUC(0-inf) was found to be 29500 ± 2720 ng·h/mL and the half-life was 7.33 ± 0.96 h.
